Test results reported in patent US20250361217A1, “FATTY ACID COMPOUNDS” (University of Pittsburgh - Of the Commonwealth System of …, priority 2022, published 2025).

Assays:
[1] = Energy expenditure and respiratory exchange ratio (FIG. 6D); assay type: in vivo; conditions: mice after treatment
[2] = system: ACC; test: Thermal shift assay of liver proteins, ACC; assay type: binding, mice
Method: The liver samples (50 mg) were homogenized and vortexed in ice-cold RIPA buffer containing phosphatase (Fisher Scientific, #PIA32957) and protease (Fisher Scientific, #PIA32953) inhibitor cocktails. Protein concentration was determined using a […] (Pierce). Protein lysates were mixed with LDS Sample Buffer (1:4) and heated for 2 min at 95° C. The lysates were then loaded and electrophoresed on a 10% Tris-Glycine eXtended (BioRad, Criterion #5671034). The proteins were electrophoretically transferred to a PVDF membrane (BioRad, #1620177), and the transfer was confirmed by staining the membrane with 0.1% Ponceau S solution (Sigma-Aldrich, #6226-79-5). The membrane was then blocked for 90 min at RT with 5% nonfat dry milk (LabScientific) or 5% BSA (MilliporeSigma) in TBS-T (tris buffered saline+0.1% Tween 20 [Thermo Fisher Scientific]). […] Quantitative densitometric analysis was performed using Image Lab software (Bio-Rad).
Thermal Shift Assay Proteins were extracted from the liver powder (50 mg) with 1 mL of phosphate-buffered saline (PBS—Gibco, Paisley, UK) containing phosphatase (Fisher Scientific, #PIA32957) and protease (Fisher Scientific, #PIA32953) inhibitors. […] The Supernatants were transferred to new tubes and analyzed by western blot as described above.

[3] = system: HFD model in C57BL/6J mice; test: Glucose tolerance test (GTT) in HFD NAFLD mouse model; assay type: in vivo
Excerpt: Male C57BL/6J mice were purchased from Jackson Laboratory (Bar Harbor, ME, USA). Mice were acclimated for a week before being randomized to receive either a low-fat diet (LFD) or a high-fat diet (HFD) purchased from Research Diets (New Brunswick, NJ, USA). Obesity was induced by the HFD (D12492, with 60% of the adjusted calories derived from fat) for 16 weeks beginning at age of 8 weeks. Age-matched controls were maintained on a LFD (D12450J, matching the sucrose level of D12492). While maintaining the diet, mice under HFD were divided into 4 groups (n=8 per group) and were treated every 2 days by oral gavage for 7 weeks with 100 μl of 11D3 (50 mg/kg), 11U3 (50 mg/kg), or 11U3-2M (50 mg/kg) formulated in a solution of 2:1 of polyethylene glycol (Fisher Scientific, PEG400 #p167-1) and saline, containing 1.5% of octanoic acid (TCI, #00027). Control groups received 100 μl of PEG400/saline/octanoic acid as the vehicle (Veh). LFD mice were divided into 2 groups (n=8 per group) and treated with veh or 11D3 (50 mg/kg) to detect any effect of natural FuFA in LFD. Mice were grouped to start at the same weight mean before starting the treatment. During and before gavage treatment, mice were fed ad libitum and given free access to water. Food intake, water consumption, and mouse weight were monitored every week. At 20 weeks (4 weeks of treatment), a glucose tolerance test (GTT) was performed on all cohorts. After 2 weeks of recovery (22 weeks), a whole-body composition was performed using EchoMRI™-100H. At the end of the 23 weeks study, mice were euthanized with isoflurane followed by laparotomy. The blood was collected, and mice were perfused using 0.9% NaCl. Organs were harvested and snap-frozen in liquid nitrogen gas and stored at −80° C. for further analysis. The Cellerusher (Cell Crusher, Schull, Ireland) tissue pulverizer was used to reduce frozen tissues to a fine, easily recoverable powder using dry ice. For immunohistochemistry, the same liver lobe for every mouse was fixed in Formalin 10% (Fisher Chemical, #SF98-4) for 48h, followed by 75% ethanol baths before paraffin embedding.
GTT was performed on mice fasted for 5h. Mice were injected intraperitoneally with filter-sterilized 1.5 g/kg glucose in 0.9% NaCl. Blood glucose levels were measured using a hand-held glucometer (Accu-Chek Aviva, Roche Diagnostics, Indianapolis, IN, USA) at 0, 20, 40, 60, 90, and 120 min.

For CCCc1ccc(CCCCCCCCCC(C)(C)C(=O)O)o1 [11U3-2M, 2,2-Dimethyl-11-(5-propylfuran-2-yl)undecanoic acid], the energy expenditure [1] was “no change”, the respiratory exchange ratio [1] was “no change” and the ACC thermal stability ([2]; full cohorts, HFD+11U3-2M, higher temperature (52, 53.5, 55° C.)) was “greatly increased”. The “ACC thermal stability compared to veh” value ([2]; one mouse per group, 52, 53.5 and 55° C.) was “higher stability”, the “blood glucose clearance measured by GTT compared to veh” value ([3]; 50 mg/kg gavage every 2 days, after 4 weeks of treatment) was “significantly improved” and the “decrease in glucose area under the curve from 0 to 120 min vs veh” value ([3]; 50 mg/kg, 4 weeks) was 24%. For the same compound, the fasting blood glucose ([3]; 50 mg/kg, 4 weeks) was “trend in decreased glucose”, the “less glucose in GTT vs veh” value ([3]; 20 min time point, 50 mg/kg, 4 weeks) was 18% and the “less glucose in GTT vs veh” value ([3]; 40 min time point, 50 mg/kg, 4 weeks) was 26%. For the same compound, the “less glucose in GTT vs veh” value ([3]; 60 min time point, 50 mg/kg, 4 weeks) was 22%.
